Test results: US6235707A, “Anticoagulant peptidyl-arginine aldehyde derivatives” (Gyogyszerkutato Intezet Kft., priority 1996, dated 2001)
Where two headings read alike, the source gives them in different places.

Key:
[1] = molecular target: T1, fibrin gel-bound thrombin (Homo sapiens, UniProt P00734); assay: inhibition of fibrin gel-bound thrombin (Methods M4, M5); assay type: biochemical; conditions: human fibrinogen clotted with human thrombin; Tos-Gly-Pro-Arg-pNA substrate
T1 construct: purchased SIGMA
Protocol: Plasma-clot was obtained by recalcificating platelet-rich human plasma, and fibrin gel by clotting human fibrinogen with human thrombin. For the activity measures of fXa and thrombin Z-D-Arg-Gly-Arg-pNA or Tos-Gly-Pro-Arg-pNA substrates were used in agreement with Methods M1-M3.
Preparation of Fibrin Clots
a) To each reaction vessel 200 μl of human fibrinogen (SIGMA), 25 μl of 25 NIH/E/ml human thrombin (SIGMA) and 40 μl of 100 mM CaCl2 solution is placed and the mixtures are allowed to stand for 1 hour at 20-22° C. The fibrin clots are washed with isotonic NaCl-solution (3×2 ml) under gentle stirring to remove traces of thrombin and sedimented for 5 min. The effectiveness of the washing can be checked by the method M1/c.
Determination of Inhibition of Fibrin-clot Bound Thrombin
a) 0.1-1.0-10 and 100 μg/ml solutions are made from the peptide inhibitors with Hepes/NaCl buffer (0.001 M Hepes and 0.1 M NaCl, pH=7.4).
b) Measurements are continued according to M3/b.

citrate plasma [2] = assay: activated partial thromboplastin time (APTT) plasma clotting test; assay type: biochemical; conditions: Table 3; twofold prolongation compared to control; read-out: A: anticoagulant IC50, APTT
Protocol: (§1) Anticoagulant activity (i.e. inhibition of the proteolytic reactions in the process) is measured by anticoagulant tests, e.g. in the thrombin time (TT), activated partial thromboplastin time (APTT) and prothrombin time (PT) tests [E. J. W. Bovie et al., Mayo Clinic Laboratory Manual of Haemostasis; W. B. Saunders Co., Philadelphia (1971)]. Plasma, inhibited in spontaneous coagulation, e.g. citrate-plasma, is made to coagulate and the required coagulation time is measured. Upon the action of anticoagulants the coagulation time is prolonged proportionally to the inhibition of the reaction(s) in the process. The anticoagulant effect can be characterised by the substance concentration required to prolong the coagulation time twofold compared to the control (IC50). The effect of anticoagulants on individual coagulant proteases is measured by the amidolytic method [R. Lottenberg et al., Methods in Enzymol. 80, 341 (1981); G. Cleason, Blood Coagulation and Fibrinolysis 5, 411 (1994)]. The isolated active factor (e.g. thrombin, fXa) and its chromogen or fluorogen peptide-amide substrate are reacted in the presence or absence of the inhibitor, resp. The enzyme inhibiting action is characterised by the inhibitory constant (IC50) measured during amidolysis.
(§2) In the TT test coagulation is initiated by the thrombin added to the citrate plasma. In the system 22 pmol/ml of thrombin is functioning and its inhibition can be measured on the fibrinogen (one of the natural substrates of thrombin) in the presence of plasma components. In the APTT and PT tests the full coagulation process takes place. Depending on the activator fX is activated either by the extrinsic or the intrinsic pathway. The generated fXa activates prothrombin to thrombin which, in turn, triggers plasma coagulation. The coagulation time is prolonged if the enzymes or one of them is inhibited by the inhibitor. In the APTT and PT tests at most 40 pmol/ml Xa can be generated (this is the full amount of factor X present in both systems) while 150 pmol/ml (APTT) and 350 pmol/ml (PT) of thrombin are generated [B. Kaiser et al., Thromb. Res. 65, 157 (1992)].
(§3) The in vitro anticoagulant effects of the compounds of general formula (I) was measured by the prothrombin time (PT), activated partial thromboplastin time (APTT) and thrombin time (TT) tests [D. Bagdy et al., Thromb. Haemost. 67, 325 (1992)]. The fxa-inhibiting effect of the compounds was also determined using the Bz-Ile-Glu-Gly-Arg-pNA chromogen substrate (see method M6).

[3] = test system: thrombin-induced blood platelet aggregation; assay: ex vivo inhibition of thrombin-induced blood platelet aggregation (PAI) in rabbits after p.o. dosing; parameters: species or system rabbit; conditions: Oryctolagus cuniculus, Platelet, po, p.o. 5 mg/kg, read-out: PAI (%), percentual inhibition of platelet aggregation
Protocol: (§4) The anticoagulant and platelet aggregation inhibiting effect of the compounds of general formula (I) was studied in New Zealand white rabbits ex vivo according to D. Bagdy et al. [Thromb. Haemost. 67, 357 (1992)]. The compounds were dissolved in buffered isotonic saline solution and administered i.v. (0,04-5.0 mg/kg) or by infusion (0.25-5.0 mg/kg/h) or subcutaneously (0.5-6.0 mg/kg) or p.o. (2.5-20 mg/kg). The effect of the compounds was detectable already within 30 minutes following p.o. administration, peak values were attained after 60-180 minutes and the therapeutic level was maintained dose-dependently for 3→6 hours.
(§5) The in vivo effect of ethoxycarbonyl-3-cyclobutyl-D-alanyl-L-prolyl-L-arginine aldehyde (1) is presented in detail in Tables 6 and 7. The corresponding values of C1 are listed as controls. The compound was administered p.o. in doses of 5 mg/kg. The blood samples drawn from the caudal vein in every 30-60 minutes were analysed. The whole blood clotting time (WBCT) and the inhibition of thrombin-induced blood platelet aggregation (PAI) were determined. The activated partial thromboplastin time (APTT) and the thrombin time (TT) in the citrate plasma obtained from the blood sample were also measured. The APTT and TT values are compiled in Table 6 and the WBCT and PAI values in Table 7.

urokinase (UK) = urokinase (UK) (Homo sapiens, UniProt P00749); assay: fibrin-plate method, plasmin formation induced by urokinase; assay type: biochemical
Source text: The inhibitory effect of the new compounds of the invention on plasmin (PL) as well as on plasmin formation induced by tissue plasminogen activator (tPA) and urokinase (UK) was examined by the fibrin-plate method [D. Bagdy et al.: Thromb. Haemost. 67, 325 (1992)]. Compounds C1 and C5 served as controls. […] V. Jackson et al.: J. Cardiovasc. Pharmacol. 21, 587 (1993))]. In Table 4 the results obtained with the new compounds 1 and 2 as well as those with controls C1 and C5 are presented as an example.

citrate plasma [4] = assay: prothrombin time (PT) plasma clotting test; assay type: biochemical; conditions: Table 3; twofold prolongation compared to control; read-out: A: anticoagulant IC50, PT
Protocol: as §1, §2, §3

[5] = test system: New Zealand white rabbits; assay: ex vivo APTT in citrate plasma of rabbits after p.o. dosing; parameters: species or system rabbit; conditions: p.o. 5 mg/kg
Protocol: as §4, §5

CCOC(=O)N[C@H](CC1CCC1)C(=O)N1CCC[C@H]1C(=O)N[C@H](C=O)CCCNC(=N)N [Example 1, Ethoxycarbonyl-3-cyclobutyl-D-alanyl-L-prolyl-L-arginine aldehyde]
IC50 [1]: 320 nM | IC50 (citrate plasma [2]): 350 nM | inhibition at 5 mg/kg ([3]; 0 h, 0 min): 1% | inhibition at 5 mg/kg ([3]; 0.5 h, 30 min): 71.3 ± 16.6% | inhibition at 5 mg/kg ([3]; 0.75 h, 45 min): 55.8 ± 17.4% | inhibition at 5 mg/kg ([3]; 1 h, 60 min): 63.8 ± 21.2% | inhibition at 5 mg/kg ([3]; 1.5 h, 90 min): 85.6 ± 10% | inhibition at 5 mg/kg ([3]; 2 h, 120 min): 73.6 ± 19.1% | inhibition at 5 mg/kg ([3]; 3 h, 180 min): 81.8 ± 11.6% | inhibition at 5 mg/kg ([3]; 4 h, 240 min): 59.4 ± 19.1% | inhibition at 5 mg/kg ([3]; 5 h, 300 min): 75.8 ± 11.8% | IC50 (urokinase (UK); fibrin plate, hydrolysed area reduced to 50% of control): 120000 nM | B: relative efficiency, UK (urokinase (UK); related to the activity of C1 (1/IC50 = 1)): 0.7 | activity against UK, times lower than that of compound C5 (urokinase (UK); text b147, third of three enzymes): 39 times | IC50 (citrate plasma [4]): 1150 nM | APTT relative clotting time ([5]; 0 min): 1.0 | APTT relative clotting time ([5]; 30 min): 1.73 ± 0.47 | APTT relative clotting time ([5]; 45 min): 1.84 ± 0.50 | APTT relative clotting time ([5]; 60 min): 1.94 ± 0.51 | APTT relative clotting time ([5]; 90 min): 1.92 ± 0.31 | APTT relative clotting time ([5]; 120 min): 1.75 ± 0.26 | APTT relative clotting time ([5]; 180 min): 1.59 ± 0.12 | APTT relative clotting time ([5]; 240 min): 1.38 ± 0.08 | APTT relative clotting time ([5]; 300 min): 1.28 ± 0.08
